Measured values from patent publication US9463254B2, “Molecular design toward dual-modality probes for radioisotope-based imaging (PET or SPECT) and MRI” (Board of Regents, The University of Texas System, priority 2013, dated 2016).

Key:
[1] = et al., cited from earlier work; for thermodynamic stability logK: Caravan, 1999
[2] = MRI imaging and relaxivity measurements at 7.0 T; assay type: physicochemical
Protocol: The T1-weighted MR images of samples in 0.5 mL microfuge tubes were collected using Agilent®/Varian™ 7.0 T ([…], 5 cm diameter volume coil) VNMRj's spin-echo sequence (SEMS) sequence. For imaging, the following parameters were used: TR=200 ms; effective echo time (TE)=11.5 ms; FOV 45×45 mm^2, data matrix=256×256, averaging=2, slice=1 mm, steady-state scans=5, single slice. The T1-maps of the samples at […] was determined from a series of multi-TR (0.005 s to 10 s) saturation-recovery spin-echo sequence (SEMS with minimum TE (11.5 ms); FOV 45×45 mm^2; matrix=128×128; averaging=5, steady state scans=5), fitted and calculated using the ImageJ software. All the fits for T1 values used to calculate the longitudinal relaxivity, r1, had fitting coefficients, R^2≧0.99. Three trials were performed. […] Such changes are well known that T1 relaxivity typically decreases with increasing field strength (Caravan, et al., 1999).

[3] = 20 MHz, 39° C.; cited from earlier work
[4] = Relaxivity measurements (T1 relaxivity, Maran Ultra relaxometer); assay type: physicochemical; settings: 20 MHz, 25° C., Millipore water
Protocol: The T1 values were recorded at […], 25° C. by using a Maran Ultra relaxometer (Oxford Instruments, UK). Longitudinal relaxation times were measured by using the inversion-recovery pulse sequence (180°-t-90°). The T1 relaxivities were determined by the linear regression analysis of the water proton relaxation rates in solutions ranging in concentration from 0.005 to 12 mM, in Millipore water in triplicate. At 20 MHz, 25° C., the relaxivity of Gd^3+-L was calculated to be 103.5±15 mM^−1 s^−1. Thus, each Gd in the complex accounts for relaxivity of 17.25 mM^−1 s^−1, while under the same conditions, the relaxivity of Gd(DOTA) complex is 3.5 mM^−1 s^−1. The relaxivity value of Gd^3+-L is approximately 400% higher than that of Gd(DOTA). This may be attributed to its higher molecular weight (larger size) and consequently longer rotational correlation time (tR). At ambient conditions (37° C.), the relaxivity value of Gd^3+-L remains unchanged. The measurement of the relaxivity value of Gd^3+-L in rat serum at 25° C. gives an enhanced relaxivity value of 145.5±9.2 mM^−1 s^−1.

O=C([O-])CN1CCN(CC(=O)[O-])CCN(CC(=O)[O-])CC1.[Ga+3] [Ga-NOTA]
thermodynamic stability logK [1]: 31.0

O=C([O-])CN(CCN(CC(=O)[O-])CC(=O)O)CCN(CC(=O)[O-])CC(=O)O.[Gd+3] [Gd-DTPA]
Log K compared with that of Gd-NOTA complex ([1]; Reichert, 1996): about eight orders of magnitude higher

O=C([O-])CN1CCN(CC(=O)[O-])CCN(CC(=O)[O-])CC1.[Gd+3] [Gd-NOTA]
thermodynamic stability logK [1]: 14.3

CNC[C@H](O)[C@@H](O)[C@H](O)[C@H](O)CO.CNC[C@H](O)[C@@H](O)[C@H](O)[C@H](O)CO.O=C([O-])CN(CCN(CC(=O)[O-])CC(=O)O)CCN(CC(=O)[O-])CC(=O)O.[Gd+3] [magnevist]
r1 (longitudinal relaxivity) of the comparator [2]: 4.1 mM^−1 S^1

Gadomer-17
ionic relaxivity [3]: 17.3 mM⁻¹ s⁻¹

gadolinium-1,4,7,10-tetrakis(carboxymethyl) cyclododecane [Gd(DOTA)]
thermodynamic stability logK [1]: 24.7
relaxivity [4]: 3.5 mM⁻¹ s⁻¹
